According to patent EP0364581A1, “METHOD OF STERILIZING PLANT POLLEN” (VSESOJUZNY NAUCHNO-ISSLEDOVATELSKY INST. SELSKOKHOZYAISTV. …, priority 1988, dated 1989):

Experiments:
Test in all cases: field test of gametocidal activity (sterilisation of anthers)
Format in all cases: in vivo
[1] = system: Sommerweizen Moskovskaya 35; settings: V. Periode, 1%ige wäßrige Emulsion, 10 kg/ha; for Prozentsatz des Ansetzens der freier Bestäubung: control = 100
From the text: (§1) Die gametozide Aktivität der erfindungsgemäßen Sterilisationsmittel war in Feldversuch in verschiedenen bodenklimatischen Zonen mit Teilstücken von 10 m^2 Größe in drei-- bis viermaliger Wiederholung nachgewiesen. Jedes Sterilisationsmittel wurde mindestens 5 Jahre lang geprüft.
(§2) Die Entwicklung der Perioden der Organogenese wird zytologisch überwacht. Die Behandlung von Pflanzen mit dem Sterilisationsmittel erfolgt am Anfang der fünften Periode der Organogenese nach Kupermann.
(§3) Mit dem Ahrenschieben verwirklicht man die Isolierung von Hauptähren und anderen Stockwerken in Pergamentbeuteln. Bei Weizen und Tritikale werden Einzelisolatoren verwendet. Bei Roggen schließt man je 1 Ähre von 5 bis 7 verschiedenen nebeneinander befindlichen Pflanzen in einen gemeinsamen Isolator ein. Bei Hirse wird jede Rispe getrennt isoliert. Der Sterilitätsprozentsatz (X) für Weizen, Roggen, Tritikale und Hirse wird nach der Formel [formula]
(§4) Samen von unbehandelten Kontrollpflanzen ermittelt.
(§5) Die Kornzahl in nicht isolierten Ähren von Kontrollpflanzen wird bedingt für 100% Ansetzen bei freier Bestäubung angenommen.
(§6) Um zuverlässige Angaben zu erhalten, verwendet man 20 bis 25 Isolatoren jeder Wiederholung für Weizen und Tritikale, 10 bis 15 Isolatoren jeder Wiederholung für Roggen und Hirse.
Pflanzen des Sommerweizens Sorte Moskovskaya 35 werden in der V. Periode der Organogenese (nach Kupermann) mit einer 1%igen wäßrigen Emulsion von Kaliumsalz der 2-Methyl-3-zyklohexenkarbonsäure,2-Methyl-3-zyklohexenkarbon- äthylester, Phthalsäuredipropylester, Phthalsäurediallylester, Phthalsäurediisobutylester, Kaliumsalz der Benzoesäure behandelt. Die Emulsion enthält 0,01 Masse% Dimethylsulfoxid und 0,1 Masse% C12-C14-Kalziumalkylbenzolsulfonat. Der Verbrauch an Präparat beträgt 10 kg/ha. Als Kontrolle dienen Pflanzen, behandelt mit einem Verdünner ohne Sterilisationsmittel. […]
(§7) In allen Fällen dienen als Kontrolle Pflanzen, behandelt mit einem Verdünner ohne Sterilisationsmittel. Die Prüfergebnisse sind in der Tabelle 20 angeführt. […] Periode der Organogenese erhalten.

[2] = system: Tritikale der Sorte PRAG-109; settings: V. Periode, 1%ige wäßrige Emulsion, 10 kg/ha; for Prozentsatz des Ansetzens der Körner bei freier Bestäubung: control = 100
From the text: as §1, §2, §3, §4, §5, §6
Pflanzen Tritikale der Sorte PRAG-109 werden in der V. Periode der Organogenese (nach Kupermann) mit einer 1%igen wäßrigen Emulsion von Phthalsäuredibutylester, Phthalsäurediäthylester, Phthalsäuredihexylester, Phthalsäurediisobutylester, Kaliumsalz der 2-Methyl-3-zyklohexenkarbon- säure, 2-Methyl-3-zyklohexenkarbonsäuremethylester behandelt. Die Emulsion enthält 0,01 Masse% Dimethylsulfoxid und 0,1 Masse% C12C14- Kalziumalkylbenzolsulfonat. Der Verbrauch an Präparat beträgt 10 kg/ha. Als Kontrolle dienen Pflanzen, behandelt mit einem Verdünner ohne Sterilisationsmittel. […]
as §7

[3] = system: tetraploidem Roggen Sorte Belta; settings: V. Periode, 1%ige wäßrige Emulsion, 6 kg/ha; for Prozentsatz des Ansetzens bei freier Bestäubung: control = 100
From the text: as §1, §2, §3, §4, §5, §6
Pflanzen von tetraploidem Roggen Sorte Belta werden in der V. Periode der Organogenese (nach Kupermann) mit einer 1%igen wäßrigen Emulsion von Kaliumsalz der 2-Methyl-3-zy- klohexenkarbonsäure, 2-Methyl-3-zyklohexenkarbonsäuremethyl- ester, Phthalsäuredibutylester, Phthalsäuredihexylester, Phthalsäuredipropylester, Phthalsäurediallylester, Phthalsäurediisobutylester, Kaliumsalz der […] behandelt. Die Emulsion enthält 0,01 Masse% Dimethylsuloxid und 0,1 Masse% C12-C14-Kalziumalkylbenzolsulfonat. Der Verbrauch an Präparat beträgt 6 kg/ha. Als Kontrolle dienen Pflanzen behandelt mit einem Verdünner ohne Sterilisationsmittel.

[4] = system: diploidem Roggen Sorte Kharkovskaya 55; settings: V. und VI. Periode, 1%ige wäßrige Emulsion, 6 kp/ha
From the text: as §1, §2, §3, §4, §5, §6
Pflanzen von diploidem Roggen Sorte Kharkovskaya 55 werden in der V. und VI. Periode der Organogenese (nach Kupermann) mit einer 1%igen wäßrigen Emulsion von Phthalsäuredibutylester, Phthalsäurediisobutylester, Phthalsäurediallylester, Phthalsäuredihexylester, 2-Methyl-3-zyklohexen- karbonsäuremethylester, Natriumsalz der 2-Methyl-3-zyklohex- enkarbonsäure behandelt. Die Emulsion enthält 0,01 Masse% Dimethylformamid und 0,1 Masse% C12C14-Kalziumalkylbenzolsulfonat.
Der Verbrauch an Präparat beträgt 6 kp/ha. Als Kontrolle dienen Pflanzen, benandelt mit einem Verdünner ohne Sterilisationsmittel.

[5] = system: diploidem Roggen Sorte Gibrid 1861/79; settings: V. Periode, 1%ige wäßrige Emulsion, 6 kg/ha; for Prozentsatz des Ansetzens der Körner bei freier Bestäubung: control = 100
From the text: as §1, §2, §3, §4, §5, §6
Pflanzen von diploidem Roggen Sorte Gibrid 1861/79 werden in der V. Periode der Organogenese (nach Kupermann) mit einer 1%igen wäßrigen Emulsion von Phthalsäurediisobutylester, Kaliumsalz der 2-Methyl-3-zyklohexenkarbonsäure, 2--Methyl-3-zyklohexenkarbonsäuremethylester, Ammoniumsalz der 2-Methyl-3-zyklohexenkarbonsäure, Phthalsäurediallylester, Phthalsäuredihexylester, Ammoniumsalz der p-Hydroxybenzoesäure behandelt. Die Emulsion enthält 0,01 Masse% Dimethylsulfoxid und 0,1 Masse% C12-C14-Kalziumalkylbenzolsulfonat. Der Verbrauch an Präparat beträgt 6 kg/ha. Als Kontrolle dienen Pflanzen, behandelt mit einem Verdünner ohne Sterilisationsmittel.

## CC1C=CCCC1C(=O)[O-].[K+] (stereo not shown) [Beispiel 23, Kaliumsalz der 2-Methyl-3-zyklohexenkarbonsäure]
[1]
  Kornzahl der Ähre bei freier Bestäubung: 30,8
  Kornzahl der Ähre im Isolator: 0,0
  Prozentsatz der Sterilität: 100,0%
  Prozentsatz des Ansetzens der freier Bestäubung: 92,8%

## CCOC(=O)C1CCC=CC1C (stereo not shown) [Beispiel 24, 2-Methyl-3-zyklohexenkarbon-äthylester]
[1]
  Kornzahl der Ähre bei freier Bestäubung: 29,6
  Kornzahl der Ähre im Isolator: 0,0
  Prozentsatz der Sterilität: 100,0%
  Prozentsatz des Ansetzens der freier Bestäubung: 89,2%

## CCCOC(=O)c1ccccc1C(=O)OCCC [Beispiel 26, Phthalsäuredipropylester]
[1]
  Kornzahl der Ähre bei freier Bestäubung: 28,6
  Kornzahl der Ähre im Isolator: 1,2
  Prozentsatz der Sterilität: 95,6%
  Prozentsatz des Ansetzens der freier Bestäubung: 86,1%

## C=CCOC(=O)c1ccccc1C(=O)OCC=C [Beispiel 27, Phthalsäurediallylester]
[1]
  Kornzahl der Ähre bei freier Bestäubung: 31,1
  Kornzahl der Ähre im Isolator: 0,3
  Prozentsatz der Sterilität: 98,9%
  Prozentsatz des Ansetzens der freier Bestäubung: 94,0%

## CC(C)COC(=O)c1ccccc1C(=O)OCC(C)C [Beispiel 28, Phthalsäurediisobutylester]
[1]
  Kornzahl der Ähre bei freier Bestäubung: 31,8
  Kornzahl der Ähre im Isolator: 0,0
  Prozentsatz der Sterilität: 100,0%
  Prozentsatz des Ansetzens der freier Bestäubung: 95,8%

## O=C([O-])c1ccccc1.[K+] [Beispiel 29, Kaliumsalz der Benzoesäure]
[1]
  Kornzahl der Ähre bei freier Bestäubung: 33,0
  Kornzahl der Ähre im Isolator: 7,2
  Prozentsatz der Sterilität: 73,8%
  Prozentsatz des Ansetzens der freier Bestäubung: 99,4%

## CCCCOC(=O)c1ccccc1C(=O)OCCCC [Beispiel 37, Phthalsäuredibutylester]
[2]
  Kornzahl der Ähre bei freier Bestäubung: 62,1
  Kornzahl der Ähre im Isolator: 0,1
  Prozentsatz der Sterilität: 99,8%
  Prozentsatz des Ansetzens der Körner bei freier Bestäubung: 90,0%

## CCOC(=O)c1ccccc1C(=O)OCC [Beispiel 38, Phthalsäurediäthylester]
[2]
  Kornzahl der Ähre bei freier Bestäubung: 60,8
  Kornzahl der Ähre im Isolator: 0,8
  Prozentsatz der Sterilität: 98,7%
  Prozentsatz des Ansetzens der Körner bei freier Bestäubung: 88,1%

## CCCCCCOC(=O)c1ccccc1C(=O)OCCCCCC [Beispiel 39, Phthalsäuredihexylester]
[2]
  Kornzahl der Ähre bei freier Bestäubung: 61,7
  Kornzahl der Ähre im Isolator: 3,0
  Prozentsatz der Sterilität: 95,2%
  Prozentsatz des Ansetzens der Körner bei freier Bestäubung: 89,4%

## CC1C=CCCC1C(=O)O (stereo not shown) [Beispiel 41, Kaliumsalz der 2-Methyl-3-zyklohexenkarbon-säure]
[2]
  Kornzahl der Ähre bei freier Bestäubung: 65,1
  Kornzahl der Ähre im Isolator: 0,1
  Prozentsatz der Sterilität: 99,8%
  Prozentsatz des Ansetzens der Körner bei freier Bestäubung: 94,3%

## COC(=O)C1CCC=CC1C (stereo not shown) [Beispiel 42, 2-Methyl-3-zyklohexenkarbonsäuremethylester]
[2]
  Kornzahl der Ähre bei freier Bestäubung: 64,7
  Kornzahl der Ähre im Isolator: 0,0
  Prozentsatz der Sterilität: 100,0%
  Prozentsatz des Ansetzens der Körner bei freier Bestäubung: 93,8%

## COC(=O)C1CCC=CC1C (stereo not shown) [Beispiel 49, 2-Methyl-3-zyklohexenkarbonsäuremethyl-ester]
[3]
  Kornzahl der Ähre bei freier Bestäubung: 44,2
  Kornzahl der Ähre im Isolator: 0,0
  Prozentsatz der Sterilität: 100,0%
  Prozentsatz des Ansetzens bei freier Bestäubung: 93,8%

## CCCCOC(=O)c1ccccc1C(=O)OCCCC [Beispiel 50, Phthalsäuredibutylester]
[3]
  Kornzahl der Ähre bei freier Bestäubung: 43,1
  Kornzahl der Ähre im Isolator: 0,0
  Prozentsatz der Sterilität: 100,0%
  Prozentsatz des Ansetzens bei freier Bestäubung: 91,5%

## CCCCCCOC(=O)c1ccccc1C(=O)OCCCCCC [Beispiel 51, Phthalsäuredihexylester]
[3]
  Kornzahl der Ähre bei freier Bestäubung: 45,9
  Kornzahl der Ähre im Isolator: 0,2
  Prozentsatz der Sterilität: 99,5%
  Prozentsatz des Ansetzens bei freier Bestäubung: 97,4%

## CCCOC(=O)c1ccccc1C(=O)OCCC [Beispiel 52, Phthalsäuredipropylester]
[3]
  Kornzahl der Ähre bei freier Bestäubung: 40,8
  Kornzahl der Ähre im Isolator: 0,0
  Prozentsatz der Sterilität: 100,0%
  Prozentsatz des Ansetzens bei freier Bestäubung: 86,6%

## C=CCOC(=O)c1ccccc1C(=O)OCC=C [Beispiel 53, Phthalsäurediallylester]
[3]
  Kornzahl der Ähre bei freier Bestäubung: 41,6
  Kornzahl der Ähre im Isolator: 0,3
  Prozentsatz der Sterilität: 99,7%
  Prozentsatz des Ansetzens bei freier Bestäubung: 88,3%

## CC(C)COC(=O)c1ccccc1C(=O)OCC(C)C [Beispiel 54, Phthalsäurediisobutylester]
[3]
  Kornzahl der Ähre bei freier Bestäubung: 40,4
  Kornzahl der Ähre im Isolator: 0,0
  Prozentsatz der Sterilität: 100,0%
  Prozentsatz des Ansetzens bei freier Bestäubung: 85,8%

## CCCCOC(=O)c1ccccc1C(=O)OCCCC [Beispiel 68, Phthalsäuredibutylester]
[4]
  Kornzahl der Ähre bei freier Bestäubung: 48,6
  Kornzahl der Ähre im Isolator: 0,0
  Prozentsatz der Sterilität: 100,0%
[4]; control = 100
  Prozentsatz des Ansetzens der Körner bei freier Bestäubung: 92,7%

## CC(C)COC(=O)c1ccccc1C(=O)OCC(C)C [Beispiel 82, Phthalsäurediisobutylester]
[5]
  Kornzahl der Ähre bei freier Bestäubung: 57,1
  Kornzahl der Ähre im Isolator: 0,6
  Prozentsatz der Sterilität: 98,9%
  Prozentsatz des Ansetzens der Körner bei freier Bestäubung: 90,9%

## CC1C=CCCC1C(=O)O (stereo not shown) [Beispiel 83, Kaliumsalz der 2-Methyl-3-zyklohexenkarbonsäure]
[5]
  Kornzahl der Ähre bei freier Bestäubung: 56,7
  Kornzahl der Ähre im Isolator: 0,2
  Prozentsatz der Sterilität: 99,7%
  Prozentsatz des Ansetzens der Körner bei freier Bestäubung: 90,2%

## COC(=O)C1CCC=CC1C (stereo not shown) [Beispiel 84, 2--Methyl-3-zyklohexenkarbonsäuremethylester]
[5]
  Kornzahl der Ähre bei freier Bestäubung: 51,2
  Kornzahl der Ähre im Isolator: 0,0
  Prozentsatz der Sterilität: 100,0%
  Prozentsatz des Ansetzens der Körner bei freier Bestäubung: 81,5%

## CC1C=CCCC1C(=O)O (stereo not shown) [Beispiel 85, Ammoniumsalz der 2-Methyl-3-zyklohexenkarbonsäure]
[5]
  Kornzahl der Ähre bei freier Bestäubung: 57,8
  Kornzahl der Ähre im Isolator: 0,0
  Prozentsatz der Sterilität: 100,0%
  Prozentsatz des Ansetzens der Körner bei freier Bestäubung: 92,0%

## C=CCOC(=O)c1ccccc1C(=O)OCC=C [Beispiel 86, Phthalsäurediallylester]
[5]
  Kornzahl der Ähre bei freier Bestäubung: 59,6
  Kornzahl der Ähre im Isolator: 0,0
  Prozentsatz der Sterilität: 100,0%
  Prozentsatz des Ansetzens der Körner bei freier Bestäubung: 95,0%

## CCCCCCOC(=O)c1ccccc1C(=O)OCCCCCC [Beispiel 87, Phthalsäuredihexylester]
[5]
  Kornzahl der Ähre bei freier Bestäubung: 56,4
  Kornzahl der Ähre im Isolator: 0,0
  Prozentsatz der Sterilität: 100,0%
  Prozentsatz des Ansetzens der Körner bei freier Bestäubung: 89,8%

## O=C(O)c1ccc(O)cc1 [Beispiel 88, Ammoniumsalz der p-Hydroxybenzoesäure]
[5]
  Kornzahl der Ähre bei freier Bestäubung: 68,9
  Kornzahl der Ähre im Isolator: 0,8
  Prozentsatz der Sterilität: 98,5%
  Prozentsatz des Ansetzens der Körner bei freier Bestäubung: 109,7%
